In patent publication US6528655B1, “Aromatic derivatives with HIV integrase inhibitory properties” (Pharmacor, Inc., priority 2000, dated 2003):

Each compound was assayed against HIV-1 integrase (Human immunodeficiency virus type 1 group M subtype B, UniProt P04585) (assay: HIV-1 integrase inhibition assay (radiolabeled duplex substrate corresponding to the U5 end of the HIV LTR)). Settings: not given.
Type: biochemical
Method: For the purpose of Table 1 to 4, the HIV-1 integrase inhibition assay was carried out following a known procedure (Burke, Jr. T. R. et al., J. Med. Chem. 38, 4171-4178 (1995)). A suitable radiolabeled duplex substrate corresponding to the U5 end of the HIV LTR was used.
For the purposes of Table 1 to 4 the HIV-1 integrase inhibition assay was based on a known procedure (Hazuda, D. J. et al., Nucleic Acids Res. 22 1121-1122 (1994)).

Compound | IC50 [nM]
O=C(NCCCC[C@H](NC(=O)c1c(O)cc(O)cc1O)C(=O)NCCc1ccc(O)c(O)c1)OCc1ccccc1 [Example 37, N-[Nα-(2,4,6-Trihydroxybenzoyl)-Nε-benzyloxycarbonyl-L-lysyl]dopamine] | 1600
O=C(N[C@@H](Cc1cn(C(c2ccccc2)(c2ccccc2)c2ccccc2)cn1)C(=O)O)c1ccc(O)c(O)c1 [Example 29, Nα-(3,4-Dihydroxybenzoyl)-Nτ-trityl-L-histidine] | 1600
COc1ccc(NC(=O)[C@H](CCC(=O)NC(c2ccccc2)(c2ccccc2)c2ccccc2)NC(=O)c2cc3cc(F)ccc3[nH]2)cc1O [Example 113, N-[Nα-(5-Fluoroindole-2-carbonyl)-Nδ-trityl-L-glutaminyl]-3-hydroxy-4-methoxyaniline] | 6500
O=C(C=Cc1ccsc1)NC(Cc1cn(-c2ccc([N+](=O)[O-])cc2[N+](=O)[O-])cn1)C(=O)NNC(=O)c1ccccc1O [Example 81, N1-[Nα-(3-(3′-thiophenyl)acryloyl)-Nτ-(2,4-dinitrophenyl)-L-histidinyl]-N2-(2-hydroxybenzoyl)-hydrazine] | > 10000
CC(C)(C)OC[C@H](NC(=O)c1cc2ccccc2n1Cc1ccc(F)cc1)C(=O)NCCc1ccc(O)c(O)c1 [Example 95, N-[Nα-(N′-(4-Fluorobenzyl)indole-2-carbonyl)-O-tert-butyl-L-seryl]dopamine] | 7000
O=C(NCCCC[C@H](NC(=O)c1ccc(O)c(O)c1)C(=O)O)c1ccc(O)c(O)c1 [Example 3, Nα,Nε-di-(3,4-Dihydroxybenzoyl)-L-lysine] | 14000
COc1ccc(NC(=O)[C@H](CCC(=O)NC(c2ccccc2)(c2ccccc2)c2ccccc2)NC(=O)c2ccc(OCc3ccc(F)cc3)c(OCc3ccc(F)cc3)c2)cc1O [Example 111, N-[Nα-(3,4-di-(4-Fluorobenzyloxy)benzoyl)-Nδ-trityl-L-glutaminyl]-3-hydroxy-4-methoxyaniline] | 6100
CC(C)(C)OC(=O)CC[C@H](NC(=O)c1cc(O)c2cccc(O)c2n1)C(=O)NCCc1cccs1 [Example 105, N-[Nα-(4,8-Dihydroxyquinoline-2-carbonyl)-Oδ-tert-butyl-L-glutamyl]-2-(2′-thiophenyl)ethylamine] | > 10000
O=C(N[C@@H](Cc1ccc(O)cc1)C(=O)NNC(=O)c1ccccc1O)c1cc(O)c2cccc(O)c2n1 [Example 73, N1-[Nα-(4,8-Dihydroxyquinoline-2-carbonyl)-L-tyrosyl]-N2-(2-hydroxybenzoyl)-hydrazine] | 2200
O=C(NCCCC[C@H](NC(=O)c1cc2cccc(O)c2cc1O)C(=O)NO)c1cc2cccc(O)c2cc1O [Example 56, Nα,Nε-di-(3,5-Dihydroxynaphthyl-2-carbonyl)-L-lysine hydroxylamide] | 5300
COc1ccc(OC)c(C=CC(=O)N[C@@H](CO)C(=O)NCCc2ccc(O)c(O)c2)c1 [Example 46, N-[Nα-(2,5-Dimethoxycinnamoyl)-L-seryl]dopamine] | > 10000
O=C(/C=C/c1ccc(O)c(O)c1)N[C@@H](CSC(c1ccccc1)(c1ccccc1)c1ccccc1)C(=O)NCCc1ccc(O)c(O)c1 [Example 12, N-(Nα-Caffeoyl-S-trityl-L-cysteinyl)dopamine] | 472
O=C(N[C@H](Cc1cn(C(c2ccccc2)(c2ccccc2)c2ccccc2)cn1)C(=O)NCCc1ccc(O)c(O)c1)c1ccc(O)c(O)c1 [Example 16, N-[Nα-(3,4-Dihydroxybenzoyl)-Nτ-trityl-D-histidinyl]dopamine] | 155
O=C(N[C@@H](COCc1ccccc1)C(=O)NCCc1ccc(O)c(O)c1)c1ccc(O)c([N+](=O)[O-])c1 [Example 34, N-[Nα-(4-Hydroxy-3-nitrobenzoyl)-O-benzyl-L-seryl]dopamine] | 1800
COc1ccc(NC(=O)[C@H](CCC(=O)NC(c2ccccc2)(c2ccccc2)c2ccccc2)NC(=O)/C=C/c2ccc(OCc3ccc(F)cc3)c(OCc3ccc(F)cc3)c2)cc1O [Example 112, N-[Nα-(3,4-di-(4-Fluorobenzyloxy)caffeoyl)-Nδ-trityl-L-glutaminyl]-3-hydroxy-4-methoxyaniline] | 2000
Cc1ccc(C(NC(=O)CC[C@H](NC(=O)c2cc(O)c3cccc(O)c3n2)C(=O)NCc2ccc(O)c(O)c2)(c2ccccc2)c2ccccc2)cc1 [Example 69, N-[Nα-(4,8-Dihydroxyquinoline-2-carbonyl)-Nδ-methyltrityl-L-glutaminyl]-3,4-dihydroxybenzylamine] | 346
O=C(CCc1ccc(O)c(O)c1)N[C@@H](Cc1cn(C(c2ccccc2)(c2ccccc2)c2ccccc2)cn1)C(=O)NCCc1ccc(O)c(O)c1 [Example 27, N-(Nα-Dihydrocaffeoyl-Nτ-trityl-L-histidinyl)dopamine] | > 5000
O=C(N[C@@H](CO)C(=O)NCCc1ccc(O)c(O)c1)c1cc2ccccc2n1Cc1ccc(F)cc1 [Example 96, N-[Nα-(N′-(4-Fluorobenzyl)indole-2-carbonyl)-L-seryl]dopamine] | > 10000
COc1ccc(OC)c(NC(=O)[C@H](CCC(=O)NC(c2ccccc2)(c2ccccc2)c2ccccc2)NC(=O)/C=C/c2ccc(O)c(O)c2)c1 [Example 82, N-(Nα-Caffeoyl-Nδ-trityl-L-glutaminyl)-2,5-dimethoxyaniline] | 2550
O=C(/C=C/c1ccc(O)c(O)c1)N[C@@H](Cc1c[nH]c2ccccc12)C(=O)NNC(=O)c1ccccc1O [Example 75, N1-(Nα-Caffeoyl-L-tryptophanyl)-N2-(2-hydroxybenzoyl)-hydrazine] | 1200
CC(C)(C)OC(=O)CC[C@H](NC(=O)c1ccc(OCc2ccc(F)cc2)c(OCc2ccc(F)cc2)c1)C(=O)NCc1ccccc1 [Example 99, N-[Nα-(3,4-di-(4-Fluorobenzyloxy)benzoyl)-Oδ-tert-butyl-L-glutamyl]benzylamine] | > 10000
O=C(N[C@@H](Cc1ccc(O)c(O)c1)C(=O)NCCc1ccc(O)c(O)c1)c1ccc(O)c([N+](=O)[O-])c1 [Example 15, N-[Nα-(4-Hydroxy-3-nitrobenzoyl)-L-3,4-dihydroxyphenylalanyl]dopamine] | 433
O=C(N[C@@H](Cc1c[nH]c2ccccc12)C(=O)NNC(=O)c1ccccc1O)c1cc(O)c2cccc(O)c2n1 [Example 77, N1-[Nα-(4,8-Dihydroxyquinoline-2-carbonyl)-L-tryptophanyl]-N2-(2-hydroxybenzoyl)-hydrazine] | 4700
COc1ccc(OC)c(NC(=O)[C@H](CCC(=O)NC(c2ccccc2)(c2ccccc2)c2ccccc2)NC(=O)c2ccc[nH]2)c1 [Example 88, N-[Nα-(Pyrrole-2-carbonyl)-Nδ-trityl-L-glutaminyl]-2,5-dimethoxyaniline] | > 10000
O=C(/C=C/c1ccc(O)c(O)c1)NCCCC[C@H](NC(=O)/C=C/c1ccc(O)c(O)c1)C(=O)NCCc1ccc(O)c(O)c1 [Example 5, N-(Nα,Nε-Dicaffeoyl-L-lysyl)dopamine] | 510

Same assay, conditions: Table 2, compounds of formula III′; read-out: IC50

Compound | IC50 [nM]
O=C(NCCCC[C@H](NC(=O)c1cc2cccc(O)c2cc1O)C(=O)OCc1ccccc1)c1cc2cccc(O)c2cc1O [Example 55, Nα,Nε-di-(3,5-Dihydroxynaphthyl-2-carbonyl)-L-L-lye Benzyl Ester] | > 5000

Same assay, conditions: Table 4, compounds of formula I′; read-out: IC50

Compound | IC50 [nM]
O=C(C=Cc1ccc(OCc2ccc(F)cc2)c(OCc2ccc(F)cc2)c1)NCC(=O)NCCc1cccs1 [Example 98, N-[Nα-(3,4-di-(4-Fluorobenzyloxy)caffeoyl)-glycyl]-2-(2′-thiophenyl)ethylamine] | > 10000
